Read-outs that look alike come from different tables or passages of the source. Square brackets hold non-standard residues; d marks the D form. Peptide text beside a SMILES is read from it. Phe(4-NO2) = N[C@@H](Cc1ccc([N+](=O)[O-])cc1)C(=O)O; Phe(4-Cl) = N[C@@H](Cc1ccc(Cl)cc1)C(=O)O; NMeR = CN[C@@H](CCCNC(=N)N)C(=O)O; Aoc = NCCCCCCCC(=O)O; Sar = CNCC(=O)O
Assays:
[1] = system: Freund's Complete Adjuvant model of inflammatory nociception; conditions: rat, in vivo
KOR [2] = target: T1, KOR (Homo sapiens, UniProt P41145); assay: cell-based; assay type: cell-based
T1 sequence (P41145 whole entry): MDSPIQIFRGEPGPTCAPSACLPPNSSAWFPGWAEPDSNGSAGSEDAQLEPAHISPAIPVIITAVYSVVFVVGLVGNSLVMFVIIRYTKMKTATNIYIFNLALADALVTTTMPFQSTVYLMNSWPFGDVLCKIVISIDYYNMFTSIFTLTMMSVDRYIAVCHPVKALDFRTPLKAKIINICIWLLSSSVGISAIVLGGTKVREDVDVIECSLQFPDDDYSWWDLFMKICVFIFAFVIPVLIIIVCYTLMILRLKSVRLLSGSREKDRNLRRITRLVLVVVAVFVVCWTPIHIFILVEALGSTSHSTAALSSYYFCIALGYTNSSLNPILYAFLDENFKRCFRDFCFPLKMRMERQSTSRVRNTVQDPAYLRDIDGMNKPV

[3] = target: T2, bovine pancreatic trypsin (Bos taurus, UniProt P00760); assay: Stability in bovine trypsin; assay type: in vitro ADME; conditions: bovine pancreatic trypsin 2.5 μg/mL, NH4HCO3 buffer pH 8-8.5, 37° C., 100 μM peptide
T2 construct: from tissue; host or cells: bovine pancreas
T2 sequence (P00760 24-246): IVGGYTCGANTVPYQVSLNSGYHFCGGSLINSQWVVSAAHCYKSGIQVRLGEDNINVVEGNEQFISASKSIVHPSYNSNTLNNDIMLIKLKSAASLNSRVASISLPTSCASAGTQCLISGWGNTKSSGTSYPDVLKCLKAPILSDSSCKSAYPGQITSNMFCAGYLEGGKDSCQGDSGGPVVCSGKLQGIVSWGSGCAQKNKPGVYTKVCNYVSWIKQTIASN
Description: The stability of the peptides was analysed in typsin, plasma and water. Stability of linear peptides is generally low due to rapid degradation by endogenous peptidases and proteases. While stability in bodily fluids is important, absolute stability may not be prudent or desirable due to potential build-up in vivo leading to adverse side effects, and/or hazards to the environment and recirculation of exceptionally stable compounds in waterways. Thus, compounds that are extremely stable in either plasma or typsin are not generally considered “drug-like”.
Stability in bovine trypsin was analysed for SEQ ID Nos. 2 to 7 and 11 to 17. Peptides were added to trypsin solution (bovine pancreatic trypsin 2.5 μg/mL in NH4HCO3 buffer, pH approximately 8-8.5, 37° C.) in a water bath with final concentrations of 100 μM peptide. A 50 μL sample was taken immediately and precipitated in 150 μL of cold acetonitrile (9:1 acetonitrile:water) This sample became the baseline, or t=0 min sample. The trypsin peptide mixture was immediately returned to the water bath and subsequent 50 μL samples were taken at 5, 10, 15, 30, 60 and 120 min. At each time point, the 50 μL sample was collected and immediately added to cold acetonitrile (ACN). Each sample was vortexed for 30 sec and then centrifuged at room temperature (RT) (13K rpm, 5 min). 150 μL of the supernatant was taken and directly place in a glass HPLC vial for LCMS analysis.

[4] = target: Kappa opioid receptor (KOR) (Homo sapiens, UniProt P41145); assay: cell-based; assay type: cell-based
Sequence of Kappa opioid receptor (KOR) (P41145 whole entry): as the sequence (P41145 whole entry) above

Mu opioid receptor (MOR) = Mu opioid receptor (MOR) (Homo sapiens, UniProt P35372); assay: cell-based; assay type: cell-based
Sequence of Mu opioid receptor (MOR) (P35372 whole entry): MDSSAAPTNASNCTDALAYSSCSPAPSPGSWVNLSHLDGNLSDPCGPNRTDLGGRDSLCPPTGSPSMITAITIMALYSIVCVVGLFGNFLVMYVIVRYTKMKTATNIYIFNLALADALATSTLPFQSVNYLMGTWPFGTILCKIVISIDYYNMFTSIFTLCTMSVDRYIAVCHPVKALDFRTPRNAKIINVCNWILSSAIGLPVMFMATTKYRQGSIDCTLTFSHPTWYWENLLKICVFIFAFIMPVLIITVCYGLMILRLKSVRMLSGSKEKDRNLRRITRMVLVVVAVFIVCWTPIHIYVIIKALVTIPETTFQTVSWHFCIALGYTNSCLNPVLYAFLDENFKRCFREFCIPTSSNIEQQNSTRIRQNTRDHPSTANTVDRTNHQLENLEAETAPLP

KOPr = KOPr (Homo sapiens, UniProt P41145); assay type: cell-based
Sequence of KOPr (P41145 whole entry): as the sequence (P41145 whole entry) above

KOR [5] = target: T1, KOR; assay: biochemical; assay type: binding
Stability in rat plasma = assay type: in vitro ADME; conditions: both sexes, Wistar, 37° C., 100 μM peptide
Description: Stability in plasma was assessed in rat plasma. Plasma was collected in-house from adult mixed-gender Wistar rats, prepared using 2% EDTA as per standard practice. Peptides were added to the rat plasma samples at 37° C. in a water bath with final concentrations of 100 μM (1:9 peptide in water:plasma). The assay was then carried out in the same manner as the assay in bovine trypsin.

[6] = target: Delta opioid receptor (DOR) (Homo sapiens, UniProt P41143); assay: cell-based; assay type: cell-based
Sequence of Delta opioid receptor (DOR) (P41143 whole entry): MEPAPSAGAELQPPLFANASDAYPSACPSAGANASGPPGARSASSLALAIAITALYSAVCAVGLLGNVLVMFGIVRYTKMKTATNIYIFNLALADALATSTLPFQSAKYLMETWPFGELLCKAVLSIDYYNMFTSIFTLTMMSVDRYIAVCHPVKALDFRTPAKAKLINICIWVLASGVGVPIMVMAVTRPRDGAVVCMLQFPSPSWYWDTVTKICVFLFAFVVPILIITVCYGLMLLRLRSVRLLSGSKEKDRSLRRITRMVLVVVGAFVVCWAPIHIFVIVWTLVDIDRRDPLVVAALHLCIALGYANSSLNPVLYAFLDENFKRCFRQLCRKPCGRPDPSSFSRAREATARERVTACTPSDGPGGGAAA

[7] = Pharmacokinetic parameters after i.v. administration in rats; assay type: in vivo; conditions: rat; for half-life / clearance / Vd: iv, dose 0.3 mg/kg (SEQ ID NO. 19), 1 mg/kg (SEQ ID NO. 24); for clearance: read-out: CLtotal; for Vd: read-out: Vdss; for opioid-like adverse effects (e.g. respiratory depression, sedation): 0.3 mg/kg (SEQ ID NO 19), 1 mg/kg (SEQ ID NO 24)
Description: Methods are as previously reported (Hill et al., ACS Med. Chem. Lett. 2014, 5(10), 1148-51; Lohman et al., Chem. Commun. (Camb), 2019, 55(89), 13362-13365; Neilsen et al., Org. Lett., 2012, 14(22), 5720-3; Neilsen et al, Chembiochem, 2015, 16(16), 2289-93; Justyna et al., Current Drug Targets, 2013, 14(7), 798-816)). Rats were surgically implanted with a jugular vein catheter (sterile polyethylene, o.d. 0.96 mm i.d. 0.58 mm, Microtube Extrusions, Aust.) and allowed to recover overnight. Baseline blood samples (t=0) were taken prior to peptide administration directly from the indwelling jugular vein catheter. Peptide was administered directly via the catheter (i.v route), followed by a 200 μL chaser volume of heparinised saline (20 U/mL) to flush the line. Further blood samples (200 μL/sample) were collected directly from the intravenous catheter at t=1, 5 15, 30, 60, 90 120 as 180 minutes post-administration. Volumes taken were replaced with heparinised saline to avoid hypovolaemia. Blood samples were immediately centrifuged (14 k rpm, 5 min) and plasma supernatant snap frozen on dry ice for later processing. Plasma samples were thawed and diluted 1 in 4 acetonitrile, vortexed, sonicated and centrifuged. Supernatants were transferred to HPLC vials for LCMS analysis.
A Triple Quad Mass-Spectrometer (model 6460, Agilent Technologies) coupled to a Bidentate C18 HPLC column (Cogent, 100 Å, 4 μM) was used to analyse all samples. Separations were carried out using a binary solvent gradient. A Multiple Reaction Monitoring (MRM) protocol was developed for each individual peptide to maximise sensitivity of the Mass-spec and optimise the Limit of Detection (LOD) from a serially diluted standard curve, performed in both acetonitrile solvent and neat rat plasma.
Samples were analysed using MassHunter Software packages, and area under the curve (AUC) was measured for each peak of interest in the MRM, as a direct measure of concentration of compound ions in the sample. AUCs were converted to plasma concentrations (Cp; μg/mL and μM) using the standard curves generated in plasma. Data was analysed using MS Excel software. A two compartment model was adopted to determine the pharmacokinetic properties of each peptide in the rat. The first phase describes the distribution throughout the circulatory compartment, and the second phase describes the elimination/steady state concentration in plasma/tissue. Plasma half-life, volume of distribution and clearance were determined from the steady-state elimination phase.

[8] = read-out: Activity (EC50, nM) KOR

Row | Compound | KOR desensitisation (change of cAMP maximal response after pre-treatment) (KOR [2]) | EC50 [4] [nM] | cAMP activity in the presence of naloxone, KOR cells [4] | bias factor (β) relative to U50488H (KOPr) | pERK1/2 activity (KOPr) | IC50 (KOR [5]; read-out: IC50) [µM] | Ki (KOR [5]; read-out: Ki) [µM] | Area under the curve (AUC) efficacy compared to U50488H [1] | EC50 [4, 8] [nM] | opioid-like adverse effects (e.g. respiratory depression, sedation) [7] | Efficacy Index (Ie) relative to morphine [1] | further results
1 | CN1CC[C@]23c4c5ccc(O)c4O[C@H]2[C@@H](O)C=C[C@H]3[C@H]1C5 [Morphine, reference compound] |  |  |  |  |  |  |  |  |  |  |  | paw withdrawal threshold in the contralateral (uninflamed, untreated) paw at 120 minutes compared to baseline [1]: significantly reduced
2 | CC(C)C[C@H](NC(=O)[C@H](Cc1ccc([N+](=O)[O-])cc1)NC(=O)CN(C)C(=O)[C@@H](N)Cc1ccc(O)cc1)C(=O)N[C@@H](CCCNC(=N)N)C(=O)N[C@H](CCCNC(=N)N)C(N)=O [SEQ ID NO. 4, NH2-Tyr-Sar-(4-NO2)Phe-Leu-Arg-DArg-NH2] (H-Y[Sar][Phe(4-NO2)]LR[dR]-NH2) | no sign of desensitisation | 8.4 | significantly inhibited | bias towards cAMP | failed to show any pERK activity | 0.0302 | 0.0028 | significantly better efficacy than U50488H |  |  |  | Half Life Trypsin [3]: 15.4 min; cAMP assay KOR 1 μM [4]: 34.93; cAMP assay KOR 10 μM [4]: 40.29; cAMP assay MOR 1 μM (Mu opioid receptor (MOR)): 0.17; cAMP assay MOR 10 μM (Mu opioid receptor (MOR)): 2.52; half-life at 100 µM (Stability in rat plasma): 71 min; cAMP assay DOR 1 μM [6]: −0.75; cAMP assay DOR 10 μM [6]: 2.04
3 | CC(C)C[C@H](NC(=O)[C@H](Cc1ccc([N+](=O)[O-])cc1)NC(=O)CN(C)C(=O)[C@@H](N)Cc1ccc(O)cc1)C(=O)N[C@@H](CCCNC(=N)N)C(=O)N(C)[C@@H](CCCNC(=N)N)C(N)=O [SEQ ID NO. 18, NH2-Tyr-Sar-(4-NO2)Phe-Leu-Arg-NMA-NH2] (H-Y[Sar][Phe(4-NO2)]LR[NMeR]-NH2) | no sign of desensitisation |  |  | bias towards cAMP | failed to show any pERK activity |  |  |  | 1.77 |  |  | 
4 | CC(C)C[C@H](NC(=O)[C@H](Cc1ccc([N+](=O)[O-])cc1)NC(=O)CN(C)C(=O)[C@@H](N)Cc1ccc(O)cc1)C(=O)N(C)[C@@H](CCCNC(=N)N)C(=O)N(C)[C@@H](CCCNC(=N)N)C(N)=O [SEQ ID NO. 19, NH2-Tyr-Sar-(4-NO2)Phe-Leu-NMA-NMA-NH2] (H-Y[Sar][Phe(4-NO2)]L[NMeR][NMeR]-NH2) | no sign of desensitisation |  | significantly inhibited | bias towards cAMP | failed to show any pERK activity | 1.95 | 0.18 | significantly better efficacy than U50488H | 31.1 | no sign of opioid-like adverse effects | statistically significantly greater Ie over morphine | half-life ([7]; in vivo): 23.9 min; clearance ([7]; in vivo): 0.342 L/h/kg; Vd ([7]; in vivo): 0.4 L/kg; Log IC50 (KOR [5]): −5.71
5 | CC(C)C[C@H](NC(=O)[C@H](Cc1ccc(Cl)cc1)NC(=O)CN(C)C(=O)[C@@H](N)Cc1ccc(O)cc1)C(=O)N[C@@H](CCCNC(=N)N)C(=O)N[C@H](CCCNC(=N)N)C(=O)NCCCCCCCC(N)=O [SEQ ID NO. 24, NH2-Tyr-Sar-(4-Cl)Phe-Leu-Arg-DArg-C7H14-CONH2] (H-Y[Sar][Phe(4-Cl)]LR[dR][Aoc]-NH2) | modest desensitisation | 3.87 | significantly inhibited | bias towards cAMP | some influence over pERK induction |  |  |  |  | No adverse effects were observed | statistically significantly greater Ie over morphine | EC50 (Mu opioid receptor (MOR)): > 10 µM; half-life ([7]; plasma): 12.8 min; clearance ([7]; plasma): 1.58 L/h/kg; Vd ([7]; plasma): 1.7 L/kg; IC50 (KOR [5]): 0.0726 µM; Ki (KOR [5]): 0.0067 µM; EC50 [6]: > 10 µM
